From patent US20050163773A1, “Methods and pharmaceutical compositions for dopaminergic modulation of t-cell adhesion and activity” (priority 2001, published 2005)
Where “and” joins values, the source holds several entries; their conditions need not be identical. Equal entries are not always repeated.

Columns and labels:
normal human T-cells [1] = test: Membrane potential measurement by flow cytometry, human T-cells; type: cell-based; details: DPAT 10^−8 M
Experimental: (§1) Membrane potential measurements by flow cytometry: Purified normal human or mouse antigen-specific T-cells were incubated in serum-free medium (RPMI, ˜1×10^6/ml, 1 hr, 37° C., 10% CO2 humidified incubator) to assure steady state conditions. The cells were then washed, resuspended in normal RPMI, distributed into individual tubes (˜1×10^6/tube), added with 300 nM di-BA-C4(3) oxanol dye (Molecular Probes, Inc., Eugene, Oreg., USA), and 5-15 minutes later added with DPAT (10^−8 M). Alternatively, the human T-cells were resuspended either in normal RPMI, or in rich K^+ RPMI solutions, incubated for 30 min (37° C., 10% CO2), and loaded with 300 nM di-BA-C4(3) oxanol dye. The cell fluorescence was analyzed on the FACSORT at 488 nm.

IL-10 secretion = IL-10 secretion by human peripheral T-cells (sandwich ELISA); type: cell-based; details: agonist 10^−7 M, 72 hours
Description: The results are expressed as pg/ml IL-10. […] Immunostaining is with intracellular anti-IL-10 FITC conjugated (FL-1) and anti-CD4 PE conjugated (FL-2) antibodies, as described in Materials and Methods hereinbelow.
The results are expressed as pg/mi.
(§2) The results are expressed as pg/ml.
as §2, §2

[2] = test system: SJL/J anti PLP 139-151 T-cells; test: Experimental autoimmune encephalomyelitis (EAE) induced by encephalitogenic T-cells treated ex vivo; type: in vivo, mouse
[3] = test system: oxazalone-sensitized T-cells; test: Passively transferred delayed type hypersensitivity (DTH) with T-cells treated ex vivo; type: in vivo, mouse
Experimental: Lymph nodes were removed from oxazalone-sensitized mice, and the T-cell suspension was exposed ex-vivo to increasing concentrations of DPAT (FIG. 9A, DPAT […]-DPAT 10^−6M) as described for FIG. 8 hereinabove. Control T-cells were incubated with medium only (untreated T-cells). The T-cells were then washed, resuspended in PBS and injected intravenously into naive syngeneic mice. The ears of the recipient mice were than challenged with oxazalone, and the degree of ear swelling was measured by micrometer 24 hr later. DTH is expressed as the mean ±SD of ear swelling in units of 10^−2 mm. […] Oxazalone-sensitized T-cells were incubated ex vivo for one hour with either DPAT (10^−8 M, +DPAT) or U-Mal (10^−7 M, +U-Mal), or both. The T-cells were then washed, resuspended in PBS, injected intravenously into normal recipients, and DTH measured as described hereinabove. […] FIGS. 9A and 9B represent two individual experiments, each experimental group consisting of 8 mice.
Passively transferred delayed type hypersenisitivity (DTH): Groups of 6-8 BALB/c female mice (The Jackson Laboratory, Bar Harbor, Mass., USA) were sensitized on the abdominal skin with 200 μt of 2% oxazalone dissolved in acetone/olive oil [4:1 vol/vol)] applied topically. Five days later, lymph nodes were removed from the sensitized mice, and a cell suspension prepared. The cells (3-5×10^6/ml in RPMI, no additional supplements) were than added for […] incubation ([…]. 37° C., 10% CO2 humidified incubator) with either DPAT, U-Mal, or both (in the latter combination the antagonist added 5 minutes before the agonist). The cells were than washed, resuspended in PBS, and injected IV (40×10^6 /mouse) into normal BALB/c recipients. Immediately afterwards the recipient mice were […] with 10 μl of 2% oxazalone in acetone/olive oil, applied topically to each side of the ear. A constant area of the ear was measured immediately before challenge and 24 hr after the challenge with a Mitutoyo engineer's micrometer. The individual measuring the ear swelling was unaware of the identity of the mice groups. The DTH reaction is expressed as the mean±SD (for each group) of the increment of ear swelling 24 hours after inoculation of the oxazalone-sensitized T-cells, in units of 10^−2 mm.

[4] = test system: Bomapin (protease inhibitor 10, PI 10); test: RT-PCR analysis of Bomapin mRNA in peripheral T-cells; type: cell-based, human; details: DPAT 10 nM; not shown
normal human T-cells [5] = test: T-cell adhesion assay (adhesion of human T-cells to fibronectin)
Experimental: T-cell adhesion assay: In the majority of the experiments, adhesion of purified normal human T-cells to fibronectin was assayed with radioactively labeled T-cells as follows: normal human T-cells, purified from a fresh blood sample, were labeled with Na2[^51CrO4], washed, and resuspended in adhesion medium (RPMI-1640 supplemented with 2% BSA, 1 mM Ca^++, 1 mM Mg^++, 1% sodium pyruvate, 1% glucose, and 1% HEPES buffer). The cells were then pre-treated (30 min., 37° C.) with DPAT, and added to fibronectin coated (1 μg/well; Sigma Chemicals, St. Louis, Mo.) microtiter flat-bottomed 96 well plates (1×10^5 cells/100 μl/well). The plates were placed in a humidified incubator (37° C., 30 min., 10% CO2), and than washed thoroughly several times with PBS, to remove non-adherent T-cells. The adherent T-cells were lysed with 1% Tween 20 in 1N NaOH, and the radioactivity in the resulting supernatants was determined in a γ-counter. For each experimental group, results were expressed as the mean CPM±SD of bound T-cells from quadruplicate wells. DPAT-treated T-cell adhesion to BSA-(rather than fibronectin) coated wells, and untreated T-cell adhesion to fibronectin coated wells, were the standard negative controls.
Non-radioactive T-cell adhesion assays: Alternatively, T-cell adhesion assays were performed with non-radioactively labeled cells, differing from the above protocol only in the final detection steps which were performed as follows: After the final washing of the adhesion plates and removal of the non adherent cells, the microtiter wells were supplemented with lysis and substrate solution (60 μl/well of: 0.5% Triton X-100 in water mixed with an equal volume of 7.5 mM p-nitrophenol-N-acetyl-β-D-glucosaminide, (Sigma Chemicals, St. Louis, Mo.) in 0.1M citrate buffer pH=5.0). The plates were then incubated (˜18hr) in a CO2-free 37° C. incubator, supplemented with stop solution (90 μl/well of 50 mM glycine, (Sigma Chemicals, St. Louis, Mo.) pH=10.4 containing 5 mM EDTA), and the optical density was measured at 405 nm in a standard Elisa reader.

[6] = test system: mouse antigen-specific (MBP87-99) T-cells; test: Membrane potential measurement by flow cytometry, mouse antigen-specific T-cells; type: cell-based; details: DPAT 10^−8 M; di-BA-C4(3) oxanol dye
Experimental: as §1

[7] = test system: resting human peripheral T-cells; test: Gene expression, Atlas human cDNA expression array; type: cell-based; details: DPAT 10 nM, 24 hours
Experimental: Poly A+RNA was extracted from human T-lymphocytes before and after treatment with 10 nM DPAT for 24 hours, using the Atlas Pure Total RNA Labeling System (Clontech Laboratories, Inc. Palo Alto, Calif.) according to manufacturers recommendations. […] Hybridizations to the Atlas Human cDNA Expression Arrays membranes (Catalog No. 1.2 KIII (7850-1) and III (7855-1), Clontech Laboratories) were performed by Clonetech Laboratories, as described in the user manual, and the expression pattern of up and down regulated genes was visualized by autoradiography.
Poly A+ RNA was prepared from both DPAT- treated and untreated cells and reverse transcribed to ^32P-labeled cDNA. Using an Atlas human cDNA expression array (i.e. a positively charged nylon membrane spotted with 1200 different human cDNAs) for identification of effected genes, the reverse transcribed products were characterized by hybridization to the atlas membranes. The differential pattern of expression between untreated cells and DPAT-treated cells was visualized by autoradiography, and quantified by densitometry. (FIGS. 20A and 20B). […] This member of the ovalbumin family of serine protease inhibitors is expressed at elevated levels in patients with acute myeloid leukemia and chronic myelomonocytic leukemia, inhibits TNF alpha-induced cell death, and has been linked to the regulation of protease activities in early hematopoiesis (Riewald, M et al Blood 1998;91:1256-62 and Schleef R R and Chuang T L J Biol Chem 2000;275:26385-9).

normal human T-cells [8] = test: Proliferation of resting normal human T-cells (CyQuant); type: cell-based; details: 48 hours
Experimental: FIGS. 18A-C depict the proliferation of resting normal human and cultured Jurkat T-cells induced by physiological concentrations of DPAT. […] Numbers of T-cells were evaluated using the CyQuant cell proliferation assay kit (Molecular Probes), according to the manufacturer instructions. FIG. 18A represents a calibration of the CyQuant cell kit, showing the linear relationship between the fluorescent intensity and untreated human T-cell number. Note the similar maximal enhancement of T-cell proliferation with 10^−10M DPAT in purified normal human (18B) and cultured Jurkat T-cells (FIG. 18C).

CCCN(CCC)C1CCc2ccc(O)cc2C1 (stereo not drawn) [DPAT, 7-Hydroxy-DPAT]
level of depolarization, comparable extracellular K^+ concentration (normal human T-cells [1]): ~20 mM
depolarization of normal human T-cells (normal human T-cells [1]; di-BA-C4(3) oxanol dye): clear depolarization
shift of membrane potential (normal human T-cells [1]; from a resting potential of ˜48 mV): ~6 mV
induction of IL-10 secretion by receptor-specific Dopamine agonists (IL-10 secretion): induced by the D2 and D3
severity of EAE in recipient mice ([2]; T-cells incubated 1 hour with DPAT 10^−8 M ex vivo, IV into naive SJL/J mice, documented 5-12 days later): significantly reduced the severity
percentage of mice developing EAE, individual experiments ([2]; mice injected with DPAT-treated T-cells, four independent experiments): 83% and 60% (2×) and 80%
percentage of mice developing EAE, mean of four experiments ([2]; mice injected with DPAT-treated T-cells, p<0.01 vs untreated T-cells): 70%
DTH (ear swelling) caused by oxazalone-sensitized T-cells ([3]; DPAT 10^−8 M ex vivo, 1 hr, ear swelling 24 hr after challenge): significantly reduced
DTH suppression at higher and lower concentrations ([3]; DPAT concentrations other than 10^−8 M): either less or not at all effective
reduction of DTH ([3]; DPAT ex vivo, ear swelling 24 hr after challenge): > 60%
abundance of Bomapin transcripts [4]: increased abundance of Bomapin transcripts
DPAT-treated T-cell adhesion to BSA-coated wells (normal human T-cells [5]; DPAT 10 nM, BSA- instead of fibronectin-coated wells (negative control)): < 6%
adhesion when T-cells or fibronectin-coated wells were transiently exposed to DPAT (normal human T-cells [5]; DPAT 10^−8 M, washed before seeding): significant adhesion of T-cells to fibronectin was evident only if the T-cells
optimum concentration for induction of T-cell adhesion to fibronectin (normal human T-cells [5]; dose dependence, human T-cells): 10 nM
depolarization of mouse antigen specific T-cells [6]: clear depolarization
down-regulation of gene expression [7]: down-regulated the expression of others
expression of Lupus LA protein and Cathepsin E precursor [7]: induced expression of Lupus LA protein and Cathepsin E precursor
expression of the serine protease inhibitor Bomapin [7]: induction of expression
over expression of mRNA (upregulated genes) [7]: induced the over expression of mRNA encoding for several genes
DPAT concentration of maximal enhancement of proliferation, normal human T-cells (normal human T-cells [8]): 10^−10 M
proliferation of normal human T-cells relative to untreated cells (normal human T-cells [8]; DPAT 10^−8 M to 10^−10 M): up to 5 times that of untreated cells
